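Test compounds were applied to cells in 96-well plates for 48 hours at 5 doses. GI50 marks 50% less growth. TGI denotes the concentration required for complete inhibition of growth.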
What was measured:
Test in all cases: NCI-60 cell line screen, 48 h
NCI-H226 lung = test system: NCI-H226 lung
CAKI-1 renal = test system: CAKI-1 renal
SF-268 CNS = test system: SF-268 CNS
ACHN renal = test system: ACHN renal
EKVX NSCLC = test system: EKVX NSCLC
HCT-116 colon = test system: HCT-116 colon
SF-539 CNS = test system: SF-539 CNS
LOX IMVI melanoma = test system: LOX IMVI melanoma
M14 melanoma = test system: M14 melanoma
NCI-H460 lung = test system: NCI-H460 lung
HL-60(TB) leukemia = test system: HL-60(TB) leukemia
NCI/ADR-RES ovarian = test system: NCI/ADR-RES ovarian
SK-MEL-28 melanoma = test system: SK-MEL-28 melanoma
786-0 renal = test system: 786-0 renal
HOP-62 NSCLC = test system: HOP-62 NSCLC
SK-MEL-2 melanoma = test system: SK-MEL-2 melanoma
OVCAR-8 ovarian = test system: OVCAR-8 ovarian
COLO 205 colon = test system: COLO 205 colon
RXF 393 renal = test system: RXF 393 renal
IGROV1 ovarian = test system: IGROV1 ovarian
SR leukemia = test system: SR leukemia
HS 578T breast = test system: HS 578T breast
UACC-62 melanoma = test system: UACC-62 melanoma
SK-OV-3 ovarian = test system: SK-OV-3 ovarian
MDA-MB-231 breast = test system: MDA-MB-231 breast
TK-10 renal = test system: TK-10 renal
OVCAR-4 ovarian = test system: OVCAR-4 ovarian
UACC-257 melanoma = test system: UACC-257 melanoma
SNB-75 CNS = test system: SNB-75 CNS
MDA-MB-435 = test system: MDA-MB-435
SW-620 colon = test system: SW-620 colon
DU-145 prostate = test system: DU-145 prostate
SNB-19 CNS = test system: SNB-19 CNS
BT-549 breast = test system: BT-549 breast
SK-MEL-5 melanoma = test system: SK-MEL-5 melanoma
PC-3 prostate = test system: PC-3 prostate
RPMI-8226 leukemia = test system: RPMI-8226 leukemia
SF-295 CNS = test system: SF-295 CNS
KM12 colon = test system: KM12 colon
MALME-3M melanoma = test system: MALME-3M melanoma
HCT-15 colon = test system: HCT-15 colon
HOP-92 NSCLC = test system: HOP-92 NSCLC
A498 renal = test system: A498 renal
A549 NSCLC = test system: A549 NSCLC
UO-31 renal = test system: UO-31 renal
T-47D breast = test system: T-47D breast
U251 CNS = test system: U251 CNS
SN12C renal = test system: SN12C renal
OVCAR-5 ovarian = test system: OVCAR-5 ovarian
K-562 leukemia = test system: K-562 leukemia
HT29 colon = test system: HT29 colon
HCC-2998 colon = test system: HCC-2998 colon
CCRF-CEM leukemia = test system: CCRF-CEM leukemia

Structure (SMILES): COc1ccc(N2CCN(C3=C(Cl)C(=O)c4ncccc4C3=O)CC2)cc1
- GI50 (NCI-H226 lung): 16.2 µM
- TGI (NCI-H226 lung): 35.9 µM
- GI50 (CAKI-1 renal): 4.72 µM
- TGI (CAKI-1 renal): 17.1 µM
- GI50 (SF-268 CNS): 19.2 µM
- TGI (SF-268 CNS): 50.1 µM
- GI50 (ACHN renal): 1.78 µM
- TGI (ACHN renal): 3.37 µM
- GI50 (EKVX NSCLC): 2.45 µM
- TGI (EKVX NSCLC): 7.05 µM
- GI50 (HCT-116 colon): 1.92 µM
- TGI (HCT-116 colon): 3.85 µM
- GI50 (SF-539 CNS): 7.66 µM
- TGI (SF-539 CNS): 21.2 µM
- GI50 (LOX IMVI melanoma): 1.75 µM
- TGI (LOX IMVI melanoma): 3.56 µM
- GI50 (M14 melanoma): 3.04 µM
- TGI (M14 melanoma): 10.5 µM
- GI50 (NCI-H460 lung): 5.86 µM
- TGI (NCI-H460 lung): 19.9 µM
- GI50 (HL-60(TB) leukemia): 1.48 µM
- TGI (HL-60(TB) leukemia): 4.46 µM
- GI50 (NCI/ADR-RES ovarian): 6.74 µM
- TGI (NCI/ADR-RES ovarian): 28.6 µM
- GI50 (SK-MEL-28 melanoma): 3.8 µM
- TGI (SK-MEL-28 melanoma): 13.2 µM
- GI50 (786-0 renal): 15.9 µM
- TGI (786-0 renal): 29.5 µM
- GI50 (HOP-62 NSCLC): 19.1 µM
- TGI (HOP-62 NSCLC): 38 µM
- GI50 (SK-MEL-2 melanoma): 12 µM
- TGI (SK-MEL-2 melanoma): 25.4 µM
- GI50 (OVCAR-8 ovarian): 4.87 µM
- TGI (OVCAR-8 ovarian): 17.9 µM
- GI50 (COLO 205 colon): 2.01 µM
- TGI (COLO 205 colon): 4.04 µM
- GI50 (RXF 393 renal): 2.61 µM
- TGI (RXF 393 renal): 8.37 µM
- GI50 (IGROV1 ovarian): 3.25 µM
- TGI (IGROV1 ovarian): 11.6 µM
- GI50 (SR leukemia): 2.27 µM
- TGI (SR leukemia): 6.59 µM
- GI50 (HS 578T breast): 14.1 µM
- TGI (HS 578T breast): 39 µM
- GI50 (UACC-62 melanoma): 5.99 µM
- TGI (UACC-62 melanoma): 19.3 µM
- GI50 (SK-OV-3 ovarian): 12.2 µM
- TGI (SK-OV-3 ovarian): 25.2 µM
- GI50 (MDA-MB-231 breast): 1.66 µM
- TGI (MDA-MB-231 breast): 3.26 µM
- GI50 (TK-10 renal): 4.11 µM
- TGI (TK-10 renal): 11.6 µM
- GI50 (OVCAR-4 ovarian): 2.18 µM
- TGI (OVCAR-4 ovarian): 5.36 µM
- GI50 (UACC-257 melanoma): 2.86 µM
- TGI (UACC-257 melanoma): 8.41 µM
- GI50 (SNB-75 CNS): 14.3 µM
- TGI (SNB-75 CNS): 28.8 µM
- GI50 (MDA-MB-435): 1.94 µM
- TGI (MDA-MB-435): 3.68 µM
- GI50 (SW-620 colon): 1.63 µM
- TGI (SW-620 colon): 3.79 µM
- GI50 (DU-145 prostate): 5.93 µM
- TGI (DU-145 prostate): 18.4 µM
- GI50 (SNB-19 CNS): 16.9 µM
- TGI (SNB-19 CNS): 32.9 µM
- GI50 (BT-549 breast): 4.23 µM
- TGI (BT-549 breast): 14.1 µM
- GI50 (SK-MEL-5 melanoma): 12.8 µM
- TGI (SK-MEL-5 melanoma): 25.5 µM
- GI50 (PC-3 prostate): 13.8 µM
- TGI (PC-3 prostate): 29.1 µM
- GI50 (RPMI-8226 leukemia): 2.69 µM
- TGI (RPMI-8226 leukemia): 7.32 µM
- GI50 (SF-295 CNS): 13.9 µM
- TGI (SF-295 CNS): 28.3 µM
- GI50 (KM12 colon): 18.4 µM
- TGI (KM12 colon): 34.7 µM
- GI50 (MALME-3M melanoma): 2.06 µM
- TGI (MALME-3M melanoma): 6.05 µM
- GI50 (HCT-15 colon): 2.66 µM
- TGI (HCT-15 colon): 11.3 µM
- GI50 (HOP-92 NSCLC): 1.49 µM
- TGI (HOP-92 NSCLC): 3.03 µM
- GI50 (A498 renal): 15 µM
- TGI (A498 renal): 29.1 µM
- GI50 (A549 NSCLC): 15.9 µM
- TGI (A549 NSCLC): 35.2 µM
- GI50 (UO-31 renal): 2 µM
- TGI (UO-31 renal): 6.83 µM
- GI50 (T-47D breast): 1.78 µM
- TGI (T-47D breast): 4.26 µM
- GI50 (U251 CNS): 10.7 µM
- TGI (U251 CNS): 24.1 µM
- GI50 (SN12C renal): 11.1 µM
- TGI (SN12C renal): 25.6 µM
- GI50 (OVCAR-5 ovarian): 16.2 µM
- TGI (OVCAR-5 ovarian): 30.3 µM
- GI50 (K-562 leukemia): 3.03 µM
- TGI (K-562 leukemia): 12 µM
- GI50 (HT29 colon): 4.71 µM
- TGI (HT29 colon): 18.2 µM
- GI50 (HCC-2998 colon): 11.7 µM
- TGI (HCC-2998 colon): 26.5 µM
- GI50 (CCRF-CEM leukemia): 2.8 µM
- TGI (CCRF-CEM leukemia): > 100 µM

Source: PubChem BioAssay (NCI)
